The values that follow come from patent US9296734B2 (AMGEN INC., priority 2013, dated 2016).

Some results are limits rather than exact numbers.

In the first assay the target is Cathepsin D (Cat D) (Homo sapiens (Human), UniProt P07339). Nature of the assay: In vitro enzymatic Cathepsin D (Cat D) FRET assay. Format: biochemical. As to conditions: average IC50, cathepsin D enzyme assay; read-out: CatD IC50. As to the method: In Vitro Enzymatic Cathepsin D (Cat D) FRET (Fluorescence Resonance Energy Transfer) Assay
Sequence of Cathepsin D (Cat D) (P07339 65-412, species assumed): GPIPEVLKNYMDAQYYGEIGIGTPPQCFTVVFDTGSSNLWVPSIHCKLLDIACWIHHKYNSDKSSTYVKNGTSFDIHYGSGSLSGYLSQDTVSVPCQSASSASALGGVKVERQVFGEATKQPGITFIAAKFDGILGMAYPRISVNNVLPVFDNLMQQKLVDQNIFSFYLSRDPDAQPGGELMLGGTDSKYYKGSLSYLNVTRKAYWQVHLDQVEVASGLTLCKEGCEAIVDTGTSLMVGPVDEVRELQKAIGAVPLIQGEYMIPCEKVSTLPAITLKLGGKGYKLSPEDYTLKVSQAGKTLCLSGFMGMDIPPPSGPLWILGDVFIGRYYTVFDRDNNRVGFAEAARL
Recombinant Cat D was expressed in CHO cells. The assay buffer for CathepsinD is 0.05 M citrate pH 3.5, 10% DMSO final, 5 mM CHAPS. […] The assays are effectively started by the addition of different FRET substrates (20 nM for Cat D) and the combination is incubated for one hour. The FRET assay is terminated with by addition of Tris buffer, which raises the pH to neutrality, and the fluorescence is determined. The FRET substrate is a peptide with commercially available fluorophore and quencher, on opposite sides of the BACE cleavage site. […] Proteolytic cleavage of the FRET substrate releases quenching of fluorescence (Cat D excitation 500 nm and emission 580 nm).
In addition, the cathepsin D and cathepsin E assays are described in PCT publication WO2011069934.
On to `COc1cccnc1Nc1ccc(F)c([C@]2(CF)C[C@@H](C(F)(F)F)OC(N)=N2)c1` [Example 15, (4S,6S)-4-(2-fluoro-5-((3-methoxypyridin-2-yl)-amino)phenyl)-4-(fluoromethyl)-6-(trifluoromethyl)-5,6-dihydro-4H-1,3-oxazin-2-amine], for which the IC50 (usually the concentration at which inhibition is half-maximal) is 1080 µM.

For the compound `NC1=N[C@](CF)(c2cc(Nc3ncc(F)c4cc(Cl)cnc34)ccc2F)C[C@@H](C(F)(F)F)O1` [Example 19, (4S,6S)-4-(5-((3-chloro-5-fluoro-1,7-naphthyridin-8-yl)amino)-2-fluorophenyl)-4-(fluoromethyl)-6-(trifluoromethyl)-5,6-dihydro-4H-1,3-oxazin-2-amine], the IC50 is more than 133 µM.

With `NC1=N[C@](CF)(c2cc(Nc3ncnc4sc(C(F)F)nc34)ccc2F)C[C@@H](C(F)(F)F)O1` [Example 21, (4S,6S)-4-(5-((2-(difluoromethyl)thiazolo[5,4-d]pyrimidin-7-yl)amino)-2-fluorophenyl)-4-(fluoromethyl)-6-(trifluoromethyl)-5,6-dihydro-4H-1,3-oxazin-2-amine], the IC50 is more than 400 µM.

As to `C#CCOc1cnc(C(=O)Nc2ccc(F)c([C@]3(CF)C[C@@H](C(F)(F)F)OC(N)=N3)c2)cn1` [Example 35, N-(3-((4S,6S)-2-amino-4-(fluoromethyl)-6-(trifluoromethyl)-5,6-dihydro-4H-1,3-oxazin-4-yl)-4-fluorophenyl)-5-(prop-2-yn-1-yloxy)pyrazine-2-carboxamide], the IC50 was more than 400 µM.

As to `NC1=N[C@](CF)(c2cc(NC(=O)c3nn(C(F)F)cc3Cl)ccc2F)C[C@@H](C(F)(F)F)O1` [Example 36, N-(3-((4S,6S)-2-amino-4-(fluoromethyl)-6-(trifluoromethyl)-5,6-dihydro-4H-1,3-oxazin-4-yl)-4-fluorophenyl)-4-chloro-1-(difluoromethyl)-1H-pyrazole-3-carboxamide], the IC50 is 2380 µM.

On to `Cc1nc(OCC(F)(F)F)cnc1C(=O)Nc1ccc(F)c([C@]2(CF)C[C@@H](C(F)(F)F)OC(N)=N2)c1` [Example 38, N-(3-((4S,6S)-2-amino-4-(fluoromethyl)-6-(trifluoromethyl)-5,6-dihydro-4H-1,3-oxazin-4-yl)-4-fluorophenyl)-3-methyl-5-(2,2,2-trifluoroethoxy)pyrazine-2-carboxamide], for which the half-inhibitory concentration (IC50) was more than 400 µM.

On to `NC1=N[C@](CF)(c2cc(NC(=O)c3ncc(C(F)(F)F)cc3Cl)ccc2F)C[C@@H](C(F)(F)F)O1` [Example 44, N-(3-((4S,6S)-2-amino-4-(fluoromethyl)-6-(trifluoromethyl)-5,6-dihydro-4H-1,3-oxazin-4-yl)-4-fluorophenyl)-3-chloro-5-(trifluoromethyl)picolinamide], for which the half-maximal inhibitory concentration (IC50) was more than 400 µM.

Turning to `NC1=N[C@](CF)(c2cc(NC(=O)c3cnc(OCc4ncco4)cn3)ccc2F)C[C@@H](C(F)(F)F)O1` [Example 46, N-(3-((4S,6S)-2-amino-4-(fluoromethyl)-6-(trifluoromethyl)-5,6-dihydro-4H-1,3-oxazin-4-yl)-4-fluorophenyl)-5-(oxazol-2-ylmethoxy)pyrazine-2-carboxamide], the concentration for half-maximal inhibition (IC50) was more than 400 µM.

Regarding `COc1ccc(C(=O)Nc2cnc(F)c([C@]3(C)C[C@@H](C(F)(F)F)OC(N)=N3)c2)nc1` [Example 63, N-(5-((4S,6S)-2-amino-4-methyl-6-(trifluoromethyl)-5,6-dihydro-4H-1,3-oxazin-4-yl)-6-fluoropyridin-3-yl)-5-methoxypicolinamide], the IC50 was more than 400 µM.

`COc1cnc(C(=O)Nc2cnc(F)c([C@]3(C)C[C@@H](C(F)(F)F)OC(N)=N3)c2)cn1` [Example 70, N-(5-((4S,6S)-2-amino-4-methyl-6-(trifluoromethyl)-5,6-dihydro-4H-1,3-oxazin-4-yl)-6-fluoropyridin-3-yl)-5-methoxypyrazine-2-carboxamide]: the IC50 was 397 µM.

The assay is the same for the next values; noted with them: average IC50; read-out: CatD IC50.
On to `COc1cnc(C(=O)Nc2ccc(F)c([C@]3(CF)C[C@H](C(F)(F)F)OC(N)=N3)c2)cn1` (racemic) [Example 25, N-(3-((4S,6R)-2-amino-4-(fluoromethyl)-6-(trifluoromethyl)-5,6-dihydro-4H-1,3-oxazin-4-yl)-4-fluorophenyl)-5-methoxypyrazine-2-carboxamide], for which the IC50 was more than 400 µM.

In the case of `Cc1cc(Cl)cnc1C(=O)Nc1ccc(F)c([C@]2(C)C[C@@H](C(F)(F)F)OC(N)=N2)c1` (racemic) [Example 31, N-(3-((4SR,6SR)-2-amino-4-methyl-6-(trifluoromethyl)-5,6-dihydro-4H-1,3-oxazin-4-yl)-4-fluorophenyl)-5-chloro-3-methyl-2-pyridinecarboxamide], the IC50 came out at 202 µM.

Take `N#Cc1cnc2c(Nc3ccc(F)c([C@]4(CF)C[C@@H](C(F)(F)F)OC(N)=N4)c3)ncc(F)c2c1` [Example 10, 8-((3-((4S,6S)-2-amino-4-(fluoromethyl)-6-(trifluoromethyl)-5,6-dihydro-4H-1,3-oxazin-4-yl)-4-fluorophenyl)amino)-5-fluoro-1,7-naphthyridine-3-carbonitrile]: the IC50 was more than 44 µM.

As for `NC1=N[C@](CF)(c2cc(Nc3ncnc4cc(Cl)cnc34)ccc2F)C[C@@H](C(F)(F)F)O1` [Example 11, (4S,6S)-4-(5-((7-chloropyrido[3,2-d]pyrimidin-4-yl)amino)-2-fluorophenyl)-4-(fluoromethyl)-6-(trifluoromethyl)-5,6-dihydro-4H-1,3-oxazin-2-amine], the IC50 stood at 54.4 µM.

Turning to `COc1cnc2c(Nc3ccc(F)c([C@]4(CF)C[C@@H](C(F)(F)F)OC(N)=N4)c3)nccc2c1` [Example 12, (4S,6S)-4-(2-fluoro-5-((3-methoxy-1,7-naphthyridin-8-yl)amino)phenyl)-4-(fluoromethyl)-6-(trifluoromethyl)-5,6-dihydro-4H-1,3-oxazin-2-amine], the IC50 is more than 400 µM.

For `COc1cnc2c(Nc3ccc(F)c([C@]4(CF)C[C@@H](C(F)(F)F)OC(N)=N4)c3)ncnc2c1` [Example 13, (4S,6S)-4-(2-fluoro-5-((7-methoxypyrido[3,2-d]pyrimidin-4-yl)amino)phenyl)-4-(fluoromethyl)-6-(trifluoromethyl)-5,6-dihydro-4H-1,3-oxazin-2-amine], the IC50 was more than 400 µM.

With `COc1cnc(C(=O)Nc2ccc(F)c([C@]3(CF)C[C@@H](C(F)(F)F)OC(N)=N3)c2)c(C)n1` [Example 33, N-(3-((4S,6S)-2-amino-4-(fluoromethyl)-6-(trifluoromethyl)-5,6-dihydro-4H-1,3-oxazin-4-yl)-4-fluorophenyl)-5-methoxy-3-methylpyrazine-2-carboxamide], the IC50 was more than 400 µM.

Consider `COc1ccc(C(=O)Nc2ccc(F)c([C@]3(CF)C[C@@H](C(F)(F)F)OC(N)=N3)c2)nc1` [Example 49, N-(3-((4S,6S)-2-amino-4-(fluoromethyl)-6-(trifluoromethyl)-5,6-dihydro-4H-1,3-oxazin-4-yl)-4-fluorophenyl)-5-methoxypicolinamide], for which the IC50 was more than 400 µM.

Turning to `NC1=N[C@](CF)(c2cc(NC(=O)c3ncc(Br)cc3Cl)ccc2F)C[C@@H](C(F)(F)F)O1` [Example 56, N-(3-((4S,6S)-2-amino-4-(fluoromethyl)-6-(trifluoromethyl)-5,6-dihydro-4H-1,3-oxazin-4-yl)-4-fluorophenyl)-5-bromo-3-chloro-2-pyridinecarboxamide], the half-maximal inhibitory concentration (IC50) was more than 400 µM.

For `NC1=N[C@](CF)(c2cc(NC(=O)c3ncc(Cl)cc3Cl)ccc2F)C[C@@H](C(F)(F)F)O1` [Example 58, N-(3-((4S,6S)-2-amino-4-(fluoromethyl)-6-(trifluoromethyl)-5,6-dihydro-4H-1,3-oxazin-4-yl)-4-fluorophenyl)-3,5-dichloropicolinamide], the IC50 was determined as 2390 µM.

Regarding `N#Cc1ccc(C(=O)Nc2ccc(F)c([C@]3(CF)C[C@@H](C(F)(F)F)OC(N)=N3)c2)nc1` [Example 59, N-(3-((4S,6S)-2-amino-4-(fluoromethyl)-6-(trifluoromethyl)-5,6-dihydro-4H-1,3-oxazin-4-yl)-4-fluorophenyl)-5-cyanopicolinamide], the IC50 was more than 400 µM.

As to `C[C@@]1(c2cc(NC(=O)c3ccc(C#N)cn3)cnc2F)C[C@@H](C(F)(F)F)OC(N)=N1` [Example 62, N-(5-((4S,6S)-2-amino-4-methyl-6-(trifluoromethyl)-5,6-dihydro-4H-1,3-oxazin-4-yl)-6-fluoropyridin-3-yl)-5-cyanopicolinamide], the IC50 was more than 400 µM.

Take `COc1cnc(C(=O)Nc2cnc(F)c([C@]3(C)C[C@@H](C(F)(F)F)OC(N)=N3)c2)c(Cl)c1` [Example 69, N-(5-((4S,6S)-2-amino-4-methyl-6-(trifluoromethyl)-5,6-dihydro-4H-1,3-oxazin-4-yl)-6-fluoropyridin-3-yl)-3-chloro-5-methoxypicolinamide]: the IC50 is more than 400 µM.

Still in this assay, the particulars now being: average; read-out: CatD IC50.
For `C#CCOc1cnc(C(=O)Nc2ccc(F)c([C@]3(C)C[C@@H](C(F)(F)F)OC(N)=N3)c2)cn1` [Example 45, N-(3-((4S,6S)-2-amino-4-methyl-6-(trifluoromethyl)-5,6-dihydro-4H-1,3-oxazin-4-yl)-4-fluorophenyl)-5-(prop-2-yn-1-yloxy)pyrazine-2-carboxamide], the IC50 is 2570 µM.

With `C#CCOc1cnc(C(=O)Nc2cnc(F)c([C@]3(C)C[C@@H](C(F)(F)F)OC(N)=N3)c2)cn1` [Example 73, N-(5-((4S,6S)-2-amino-4-methyl-6-(trifluoromethyl)-5,6-dihydro-4H-1,3-oxazin-4-yl)-6-fluoropyridin-3-yl)-5-(prop-2-yn-1-yloxy)pyrazine-2-carboxamide], the IC50 is 1690 µM.
